The text below walks through data of US8273754B2, “Substituted 1H-pyrazolo[3,4-D]pyrimidine-6-amine compounds” (ArQule, Inc., priority 2008, dated 2012).

Structures are written as SMILES. Read-outs that look alike come from different tables or passages of the source. Some results are limits rather than exact numbers.

The assay relates to cancer cells. Put plainly: MTS cell growth inhibition assay (72 hours). The assay is classed as cell-based. In a few lines: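 Cells in DMEM with 1% FBS, seeded 18 h, then compound-treated 72 h at 37 °C. Viability by MTS/PMS for 4 h, formazan absorbance at 492 nm; IC50 taken as concentration giving 50% absorbance drop, activity banded by percent inhibition.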
Where [1] appears, read: Homo sapiens, DLD-1, 72 h, DLD-1 cells, read-out: DLD-1 MTS 72 hr at 10 μM.
The mark [2] stands for this setting: Homo sapiens, KATO III, 72 h, KATO III cells, read-out: KATO III MTS 72 hr at 10 μM.
Where [3] appears, read: Homo sapiens, MDA-MB-231, 72 h, MDA-MB-231 cells, read-out: MDA-MB-231 MTS 72 hr at 10 μM.
[4] abbreviates: Homo sapiens, NCI-H1299, 72 h, NCI-H1299 cells, read-out: NCI-H1299 MTS 72 hr at 10 μM.
The mark [5] stands for this setting: PaCa-2, 72 h, PACA-2 cells, read-out: PACA-2 MTS 72 hr at 10 μM.

On to `Nc1nc(NC2Cc3ccccc3N(Cc3ccc4nccnc4c3)C2)c2cn[nH]c2n1` (centres unmarked) [Compound 133, N4-[1-(quinoxalin-6-ylmethyl)-1,2,3,4-tetrahydroquinolin-3-yl]-1H-pyrazolo[3,4-d]pyrimidine-4,6-diamine], for which the inhibition at 10 µM under setting [1] was below 50%; the inhibition at 10 µM under setting [2] was below 50%; the inhibition at 10 µM under setting [3] was below 50%; the inhibition at 10 µM under setting [4] is below 50%; the inhibition at 10 µM under setting [5] is below 50%.
For `Cc1ccc(CN2CC(Nc3nc(N)nc4[nH]ncc34)Cc3ccccc32)c(C)c1` (centres unmarked) [Compound 134, N4-[1-(2,4-dimethylbenzyl)-1,2,3,4-tetrahydroquinolin-3-yl]-1H-pyrazolo[3,4-d]pyrimidine-4,6-diamine], the inhibition at 10 µM under setting [1] is above 79%; the inhibition at 10 µM under setting [2] was above 79%; the inhibition at 10 µM under setting [3] was below 50%; the inhibition at 10 µM under setting [4] was below 50%; the inhibition at 10 µM under setting [5] fell in the range of 50 to 79%.
Take `Cc1ccc(F)c(CN2CC(Nc3nc(N)nc4[nH]ncc34)Cc3ccccc32)c1` (centres unmarked) [Compound 135, N4-[1-(2-fluoro-5-methylbenzyl)-1,2,3,4-tetrahydroquinolin-3-yl]-1H-pyrazolo[3,4-d]pyrimidine-4,6-diamine]: the inhibition at 10 µM is above 79% under setting [1]; above 79% under setting [2]; 50 to 79% under setting [3]; 50 to 79% under setting [4]; above 79% under setting [5].
As to `Nc1nc(NC2Cc3ccccc3N(Cc3ccc(-c4cccs4)cc3)C2)c2cn[nH]c2n1` (centres unmarked) [Compound 136, N4-{1-[4-(2-thienyl)benzyl]-1,2,3,4-tetrahydroquinolin-3-yl}-1H-pyrazolo[3,4-d]pyrimidine-4,6-diamine], the inhibition at 10 µM is above 79% under setting [1]; above 79% under setting [2]; below 50% under setting [3]; below 50% under setting [4]; below 50% under setting [5].
For `COc1cccc(CN2CC(Nc3nc(N)nc4[nH]ncc34)Cc3ccccc32)c1F` (centres unmarked) [Compound 137, N4-[1-(2-fluoro-3-methoxybenzyl)-1,2,3,4-tetrahydroquinolin-3-yl]-1H-pyrazolo[3,4-d]pyrimidine-4,6-diamine], the inhibition at 10 µM reads like this: under setting [1], above 79%; under setting [2], above 79%; under setting [3], above 79%; under setting [4], above 79%; under setting [5], above 79%.
Take `N#Cc1cc(CN2CC(Nc3nc(N)nc4[nH]ncc34)Cc3ccccc32)ccc1F` (centres unmarked) [Compound 138, 5-({3-[(6-amino-1H-pyrazolo[3,4-d]pyrimidin-4-yl)amino]-3,4-dihydroquinolin-1(2H)-yl}methyl)-2-fluorobenzonitrile]: the inhibition at 10 µM is, setting by setting: under setting [1], below 50%; under setting [2], below 50%; under setting [3], below 50%; under setting [4], below 50%; under setting [5], below 50%.
For the molecule `CS(=O)(=O)c1ccc(CN2CC(Nc3nc(N)nc4[nH]ncc34)Cc3ccccc32)cc1` (centres unmarked) [Compound 139, N4-{1-[4-(methylsulfonyl)benzyl]-1,2,3,4-tetrahydroquinolin-3-yl}-1H-pyrazolo[3,4-d]pyrimidine-4,6-diamine], the inhibition at 10 µM was above 79% under setting [1]; above 79% under setting [2]; below 50% under setting [3]; below 50% under setting [4]; 50 to 79% under setting [5].
Consider `Nc1nc(NC2Cc3ccccc3N(Cc3c(F)cccc3Cl)C2)c2cn[nH]c2n1` (centres unmarked) [Compound 140, N4-[1-(2-chloro-6-fluorobenzyl)-1,2,3,4-tetrahydroquinolin-3-yl]-1H-pyrazolo[3,4-d]pyrimidine-4,6-diamine], for which the inhibition at 10 µM reads like this: under setting [1], above 79%; under setting [2], above 79%; under setting [3], above 79%; under setting [4], 50 to 79%; under setting [5], above 79%.
`COc1cc(F)ccc1CN1CC(Nc2nc(N)nc3[nH]ncc23)Cc2ccccc21` (centres unmarked) [Compound 141, N4-[1-(4-fluoro-2-methoxybenzyl)-1,2,3,4-tetrahydroquinolin-3-yl]-1H-pyrazolo[3,4-d]pyrimidine-4,6-diamine]: the inhibition at 10 µM was above 79% under setting [1]; above 79% under setting [2]; above 79% under setting [3]; above 79% under setting [4]; above 79% under setting [5].
`COc1ccc(F)c(CN2CC(Nc3nc(N)nc4[nH]ncc34)Cc3ccccc32)c1` (centres unmarked) [Compound 142, N4-[1-(2-fluoro-5-methoxybenzyl)-1,2,3,4-tetrahydroquinolin-3-yl]-1H-pyrazolo[3,4-d]pyrimidine-4,6-diamine]: the inhibition at 10 µM by setting is: under setting [1], below 50%; under setting [2], 50 to 79%; under setting [3], below 50%; under setting [4], below 50%; under setting [5], above 79%.
Consider `Nc1nc(NC2Cc3ccccc3N(Cc3ccc(-c4ccccn4)cc3)C2)c2cn[nH]c2n1` (centres unmarked) [Compound 143, N4-[1-(4-pyridin-2-ylbenzyl)-1,2,3,4-tetrahydroquinolin-3-yl]-1H-pyrazolo[3,4-d]pyrimidine-4,6-diamine], for which the inhibition at 10 µM by setting is: under setting [1], below 50%; under setting [2], below 50%; under setting [3], below 50%; under setting [4], below 50%; under setting [5], below 50%.
On to `COc1ccc(Br)cc1CN1CC(Nc2nc(N)nc3[nH]ncc23)Cc2ccccc21` (centres unmarked) [Compound 144, N4-[1-(5-bromo-2-methoxybenzyl)-1,2,3,4-tetrahydroquinolin-3-yl]-1H-pyrazolo[3,4-d]pyrimidine-4,6-diamine], for which the inhibition at 10 µM was above 79% under setting [1]; above 79% under setting [2]; above 79% under setting [3]; above 79% under setting [4]; above 79% under setting [5].
Turning to `N#Cc1cccc(CN2CC(Nc3nc(N)nc4[nH]ncc34)Cc3ccccc32)c1` (centres unmarked) [Compound 145, 3-({3-[(6-amino-1H-pyrazolo[3,4-d]pyrimidin-4-yl)amino]-3,4-dihydroquinolin-1(2H)-yl}methyl)benzonitrile], the inhibition at 10 µM is, setting by setting: under setting [1], above 79%; under setting [2], above 79%; under setting [3], above 79%; under setting [4], above 79%; under setting [5], above 79%.
Consider `COc1cc(CN2CC(Nc3nc(N)nc4[nH]ncc34)Cc3ccccc32)ccc1F` (centres unmarked) [Compound 146, N4-[1-(4-fluoro-3-methoxybenzyl)-1,2,3,4-tetrahydroquinolin-3-yl]-1H-pyrazolo[3,4-d]pyrimidine-4,6-diamine], for which the inhibition at 10 µM is, setting by setting: under setting [1], above 79%; under setting [2], above 79%; under setting [3], above 79%; under setting [4], 50 to 79%; under setting [5], above 79%.
For the molecule `CC1(C)CCc2cc(CN3CC(Nc4nc(N)nc5[nH]ncc45)Cc4ccccc43)ccc2O1` (centres unmarked) [Compound 147, N4-{1-[(2,2-dimethyl-3,4-dihydro-2H-chromen-6-yl)methyl]-1,2,3,4-tetrahydroquinolin-3-yl}-1H-pyrazolo[3,4-d]pyrimidine-4,6-diamine], the inhibition at 10 µM by setting is: under setting [1], above 79%; under setting [2], above 79%; under setting [3], 50 to 79%; under setting [4], below 50%; under setting [5], above 79%.
Take `Cc1ccc(C)c(CN2CC(Nc3nc(N)nc4[nH]ncc34)Cc3ccccc32)c1` (centres unmarked) [Compound 148, N4-[1-(2,5-dimethylbenzyl)-1,2,3,4-tetrahydroquinolin-3-yl]-1H-pyrazolo[3,4-d]pyrimidine-4,6-diamine]: the inhibition at 10 µM was above 79% under setting [1]; above 79% under setting [2]; 50 to 79% under setting [3]; 50 to 79% under setting [4]; above 79% under setting [5].
Regarding `Nc1nc(NC2Cc3ccccc3N(Cc3ccccc3Oc3ccccc3)C2)c2cn[nH]c2n1` (centres unmarked) [Compound 149, N4-[1-(2-phenoxybenzyl)-1,2,3,4-tetrahydroquinolin-3-yl]-1H-pyrazolo[3,4-d]pyrimidine-4,6-diamine], the inhibition at 10 µM under setting [1] is above 79%; the inhibition at 10 µM under setting [2] is 50 to 79%; the inhibition at 10 µM under setting [3] was below 50%; the inhibition at 10 µM under setting [4] is below 50%; the inhibition at 10 µM under setting [5] was below 50%.
As for `Nc1nc(NC2Cc3ccccc3N(Cc3c(F)cccc3F)C2)c2cn[nH]c2n1` (centres unmarked) [Compound 150, N4-[1-(2,6-difluorobenzyl)-1,2,3,4-tetrahydroquinolin-3-yl]-1H-pyrazolo[3,4-d]pyrimidine-4,6-diamine], the inhibition at 10 µM is, setting by setting: under setting [1], above 79%; under setting [2], 50 to 79%; under setting [3], below 50%; under setting [4], below 50%; under setting [5], above 79%.
As to `Nc1nc(NC2Cc3ccccc3N(Cc3cn(-c4ccccc4)nc3-c3ccccc3)C2)c2cn[nH]c2n1` (centres unmarked) [Compound 151, N4-{1-[(1,3-diphenyl-1H-pyrazol-4-yl)methyl]-1,2,3,4-tetrahydroquinolin-3-yl}-1H-pyrazolo[3,4-d]pyrimidine-4,6-diamine], the inhibition at 10 µM by setting is: under setting [1], above 79%; under setting [2], above 79%; under setting [3], below 50%; under setting [4], below 50%; under setting [5], above 79%.
